Test results taken from ChEMBL document CHEMBL5338792, “Degradation of Rat Sarcoma Proteins Targeting the Post-Translational Prenyl Modifications via Cascade Azidation/Fluorination and Click Reaction” (J Med Chem, 2023).
Calls of active or inactive are those of the source. The calls are words filed in the database; no cut-off is given here.

Experiments:
HT-29 [1] = assay: SacrPROTAC activity at E3 ubiquitin ligase/RAS in TMSN3/Selectfluor-treated human HT-29 cells assessed as induction of RAS degradation at 100 to 200 uM measured for 12 to 24 hrs by Western blot analysis; assay type: functional, cell-based; conditions: dose 100-200 µM, time 12-24 hrs
A549 [2] = assay: SacrPROTAC activity at E3 ubiquitin ligase/RAS in TMSN3/Selectfluor-treated human A549 cells assessed as induction of RAS degradation at 200 uM measured for 48 hrs by Western blot analysis; assay type: functional, cell-based
HT-29 [3] = assay: SacrPROTAC activity at E3 ubiquitin ligase/RAS in TMSN3/Selectfluor-treated human HT-29 cells assessed as induction of RAS degradation at 100 to 200 uM measured after 24 hrs by Western blot analysis; assay type: functional, cell-based; conditions: dose 100-200 µM
MCF7 [4] = assay: SacrPROTAC activity at E3 ubiquitin ligase/RAS in TMSN3/Selectfluor-treated human MCF7 cells assessed as induction of RAS degradation at 200 uM measured upto 48 hrs by Western blot analysis; assay type: functional, cell-based
[5] = biological target: T1, Protein cereblon/GTPase HRas/GTPase NRas/GTPase KRas (Homo sapiens) (UniProt P01112+P01111+P01116+Q96SW2); assay: SacrPROTAC activity at E3 ubiquitin ligase/RAS in TMSN3/Selectfluor-treated human HeLa cells assessed as induction of RAS degradation at 200 uM measured after 24 hrs in presence of PYR-41 by Western blot analysis; assay type: cell-based
[6] = biological target: T1, Protein cereblon/GTPase HRas/GTPase NRas/GTPase KRas (Homo sapiens); assay: SacrPROTAC activity at E3 ubiquitin ligase/RAS in TMSN3/Selectfluor-treated human HeLa cells assessed as induction of RAS degradation at 75 uM incubated for >48 hrs by Western blot analysis; assay type: cell-based
HeLa [7] = assay: Upregulation of GSTP1 in TMSN3/Selectfluor-treated human HeLa cells at 50 to 200 uM incubated for 24 hrs in presence of CuBr/TBTA by TMT mass spectrometric analysis; assay type: functional, cell-based; conditions: dose 50-200 µM
HT-29 [8] = assay: Inhibition of […] in TMSN3/Selectfluor-treated human HT-29 cells upto 200 uM in presence of CuBr/TBTA by CCK8 assay; assay type: functional, cell-based
HeLa [9] = assay: Downregulation of HRAS in TMSN3/Selectfluor-treated human HeLa cells at 50 to 200 uM incubated for 24 hrs in presence of CuBr/TBTA by TMT mass spectrometric analysis; assay type: functional, cell-based; conditions: dose 50-200 µM
[10] = biological target: T1, Protein cereblon/GTPase HRas/GTPase NRas/GTPase KRas (Homo sapiens); assay: SacrPROTAC activity at E3 ubiquitin ligase/RAS in TMSN3/Selectfluor-treated human HeLa cells assessed as induction of RAS degradation at 200 uM measured after 24 hrs by Western blot analysis; assay type: cell-based
[11] = biological target: T1, Protein cereblon/GTPase HRas/GTPase NRas/GTPase KRas (Homo sapiens); assay: SacrPROTAC activity at E3 ubiquitin ligase/RAS in TMSN3/Selectfluor-treated human HeLa cells assessed as induction of RAS degradation at 200 uM measured after 24 hrs in presence of methyl propargyl pomalidomide by Western blot analysis; assay type: cell-based
HeLa [12] = assay: Induction of apoptosis in TMSN3/Selectfluor-treated human HeLa cells at 200 uM in presence of CuBr/TBTA incubated for 24 hrs by annexin V-FITC/PI staining based flow cytometry; assay type: functional, cell-based
[13] = biological target: T1, Protein cereblon/GTPase HRas/GTPase NRas/GTPase KRas (Homo sapiens); assay: SacrPROTAC activity at E3 ubiquitin ligase/RAS in TMSN3/Selectfluor-treated human HeLa cells assessed as induction of RAS degradation incubated for 24 hrs by Western blot analysis; assay type: cell-based; conditions: dose <= 200.0 µM
MCF7 [14] = assay: SacrPROTAC activity at E3 ubiquitin ligase/RAS in TMSN3/Selectfluor-treated human MCF7 cells assessed as induction of RAS degradation at 200 uM measured after 24 hrs by Western blot analysis; assay type: functional, cell-based
[15] = biological target: T1, Protein cereblon/GTPase HRas/GTPase NRas/GTPase KRas (Homo sapiens); assay: SacrPROTAC activity at E3 ubiquitin ligase/RAS in TMSN3/Selectfluor-treated human HeLa cells assessed as induction of RAS degradation at 200 uM measured after 24 hrs in presence of propargyl pomalidomide by Western blot analysis; assay type: cell-based
A549 [16] = assay: SarcPROTAC activity at VHL/RAS in TMSN3/Selectfluor-treated human A549 cells at 50 uM in presence of CuBr/TBTA incubated for 24 hrs by Western blot analysis; assay type: cell-based
HeLa [17] = assay: SarcPROTAC activity at VHL/RAS in TMSN3/Selectfluor-treated human HeLa cells at 50 uM in presence of CuBr/TBTA incubated for 24 hrs by Western blot analysis; assay type: cell-based

T1 sequence (P01111 whole entry, looked up): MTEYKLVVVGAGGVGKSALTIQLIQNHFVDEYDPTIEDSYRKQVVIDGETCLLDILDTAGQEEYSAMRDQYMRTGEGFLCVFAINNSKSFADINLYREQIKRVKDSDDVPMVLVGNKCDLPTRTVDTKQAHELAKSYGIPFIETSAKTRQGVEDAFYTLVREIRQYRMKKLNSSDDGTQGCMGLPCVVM
T1 sequence (P01112 whole entry, looked up): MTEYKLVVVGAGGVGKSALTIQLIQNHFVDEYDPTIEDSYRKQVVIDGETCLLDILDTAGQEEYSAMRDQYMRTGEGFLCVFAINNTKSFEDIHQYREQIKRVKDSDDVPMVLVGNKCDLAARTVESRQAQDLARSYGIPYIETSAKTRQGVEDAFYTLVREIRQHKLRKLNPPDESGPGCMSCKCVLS
T1 sequence (P01116 whole entry, looked up): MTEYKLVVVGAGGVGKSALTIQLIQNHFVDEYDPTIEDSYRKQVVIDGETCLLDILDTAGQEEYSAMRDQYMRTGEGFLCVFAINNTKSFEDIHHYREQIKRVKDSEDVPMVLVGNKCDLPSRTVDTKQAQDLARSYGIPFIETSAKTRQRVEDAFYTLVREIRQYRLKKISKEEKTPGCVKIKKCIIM
T1 sequence (Q96SW2 whole entry, looked up): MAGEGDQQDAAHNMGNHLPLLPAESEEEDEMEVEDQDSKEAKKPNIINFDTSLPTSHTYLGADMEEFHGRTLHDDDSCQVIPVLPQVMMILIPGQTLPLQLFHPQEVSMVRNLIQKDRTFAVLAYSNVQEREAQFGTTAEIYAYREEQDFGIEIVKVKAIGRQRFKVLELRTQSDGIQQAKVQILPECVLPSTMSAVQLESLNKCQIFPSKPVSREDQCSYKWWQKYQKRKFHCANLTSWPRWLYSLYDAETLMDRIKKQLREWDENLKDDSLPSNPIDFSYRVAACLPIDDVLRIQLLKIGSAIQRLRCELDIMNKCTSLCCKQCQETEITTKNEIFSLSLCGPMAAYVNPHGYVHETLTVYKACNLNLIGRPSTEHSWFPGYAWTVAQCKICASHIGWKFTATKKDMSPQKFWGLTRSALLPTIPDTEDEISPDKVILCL

SMILES: C#CCNCC(=O)Nc1cccc2c1C(=O)N(C1CCC(=O)NC1=O)C2=O (configuration not stated)
- Activity (HT-29 [1]): Active
- Activity (A549 [2]): Active
- Activity (HT-29 [3]): Active
- Activity (MCF7 [4]): inactive
- Activity [5]: inactive
- Activity [6]: Active
- Activity (HeLa [7]): Active
- inhibition (HT-29 [8]): Active
- Activity (HeLa [9]): Active
- Activity [10]: Active
- Activity [11]: Active
- Activity (HeLa [12]): Active
- Activity [13]: Dose-Dependent Effect
- Activity (MCF7 [14]): Active

SMILES: C#CCNCC(=O)Nc1cccc2c1C(=O)N(C1CCC(=O)N(C)C1=O)C2=O (configuration not stated)
- Activity [15]: inactive

SMILES: C#CCCOC(=O)N[C@H](C(=O)N1C[C@H](O)C[C@H]1C(=O)NCc1ccc(-c2scnc2C)cc1)C(C)(C)C
- Activity (A549 [16]): Active
- Activity (HeLa [17]): Active
